Results on 2 compounds are retold here after US8841296B2, “Substituted 1, 4-dioxa-8-azaspiro[4,5]decanes useful as fungicides and a process for the preparation thereof” (Council of Scientific and Industrial Research, Anusandhan …, priority 2009, dated 2014).

One experiment concerns Magnaporthe grisea. It is filed as cell-based.
The subject of the next experiment is Rhizoctonia solani. As to the kind of experiment: Growth inhibition plate assay, R. solani. The note with it: ND = Not Detectable, read-out: Plate assay inhibition, P1 R. solani. Type of experiment: cell-based.
A further experiment deals with Fusarium oxysporum. As to the kind of experiment: Growth inhibition plate assay, F. oxysporum. Type of experiment: cell-based. The note with it: Fusarium oxysporum, ND = Not Detectable, read-out: Plate assay inhibition, P4 F. oxysporum.
The test system of the next experiment is Drechslera oryzae. As to the kind of experiment: Growth inhibition plate assay, D. oryzae. Type of experiment: cell-based. The note with it: Bipolaris oryzae, read-out: Plate assay inhibition, P3 D. oryzae, 25 ppm; ND = Not Detectable.
A further experiment relates to Pythium aphanidermatum. As to the kind of experiment: Growth inhibition plate assay, P. aphanidermatum. Type of experiment: cell-based. The note with it: ND = Not Detectable, read-out: Plate assay inhibition, P6 P. aphanidermatum.
A further experiment deals with grape powdery mildew. The experiment can be described thus: Field experiment against grape powdery mildew. It is filed as in vivo, grapevine. The note with it: for PDI on Bunches 11 DAIIS / % Disease Control (11 DAIIS): 11 days after 2nd spray; for % Disease Control (11 DAIIS) / % Disease Control (15 DAIIS): over untreated check; for PDI on Bunches 15 DAIIS / % Disease Control (15 DAIIS): 15 days after 2nd spray. The method, then:
A field experiment was conducted on pruned grapevine, in a randomized block design with ten treatments (Table No 1) and three replications. Two sprays were given at an interval of 10 days. The plot size was eight vines per treatment/replication. The spraying was done by Knapsack sprayer using 850 L spray volume/hectare. […] Based on the observations percent incidence was worked out.

The next experiment deals with grape downy mildew. As to the kind of experiment: Field experiment against grape downy mildew. Type of experiment: in vivo, grapevine. The note with it: for Grape Downy mildew incidence 7 DAIIS / % Control (7 DAIIS): 7 days after 2nd spray; for % Control (7 DAIIS) / % Control (10 DAIIS): over untreated check; for Grape Downy mildew incidence 10 DAIIS / % Control (10 DAIIS): 10 days after 2nd spray. On the procedure:
A field experiment was conducted on pruned grapevine, in a randomized block design with ten treatments (Table No. 3) and three replications. Two sprays were given at an interval of 6 days starting at 28 days after pruning. The plot size was ten vines per treatment/replication. The spraying was done by Knapsack sprayer using 1000 L spray volume/hectare. […] Based on the observations, percent disease incidence was worked out. The data was subjected to statistical analysis.

A further experiment has as its system rose powdery mildew. As to the kind of experiment: Field experiment against rose powdery mildew. Type of experiment: in vivo. The note with it: 20% EC @ 720 g a.i./ha, 4 days after spray. The text has this:
Two sprays were given at an interval of 4 days. The spraying was done by Foot operated sprayer using 1200 L spray volume/hectare. […] Based on the observations percent incidence was worked out. The data was subjected to statistical analysis.

The test system of experiment [1] is plant pathogenic fungi (all the test pathogens). It is filed as cell-based.
Another experiment deals with Pyrricularia oryzae. As to the kind of experiment: microbe, parasite or virus in culture. The note with it: Pyricularia oryzae, read-out: Plate assay inhibition, P5 P. oryzae, 25 ppm; ND = Not Detectable. Type of experiment: cell-based.
The next experiment deals with Colletotrichum capsici. The experiment can be described thus: Growth inhibition plate assay, C. capsici. The note with it: Colletotrichum truncatum, ND = Not Detectable, read-out: Plate assay inhibition, P2 C. capsici. Type of experiment: cell-based.
[2] abbreviates: 20% EC @ 800 g a.i./ha, listed as Cpd 2.

As to `c1ccc(CCN2CCC3(CC2)OCC(COCc2ccccc2)O3)cc1` (stereo not shown) [Compound 5, 2-benzyloxymethyl-8-phenethyl-1,4-dioxa-8-azaspiro[4,5]decane], the “inhibition against M. grisea” value with Magnaporthe grisea is 60-70%. The inhibition (commonly how much of the control response was suppressed) at 25 ppm was in the range of 40 to 50% in the experiment with Rhizoctonia solani, 40 to 50% in the experiment with Fusarium oxysporum and 60 to 70% in the experiment on Drechslera oryzae.
Consider `Clc1cc(Br)ccc1OCC1COC2(CCN(CCc3ccccc3)CC2)O1` (stereo not shown) [Compound 2, 2-(4-bromo-2-chlorophenoxy)methyl-8-phenethyl-1,4-dioxa-8-azaspiro[4,5]decane], for which the inhibition at 25 ppm in the experiment with Pythium aphanidermatum, in the experiment on Rhizoctonia solani, with Fusarium oxysporum, with Drechslera oryzae, with Pyrricularia oryzae and in the experiment on Colletotrichum capsici was 90 to 100% throughout. Moreover, the “PDI on Bunches 11 DAIIS” value in the experiment on grape powdery mildew (20% EC @ 340 g a.i./ha) is listed as 12.96%; in the experiment on grape powdery mildew (20% EC @ 510 g a.i./ha), 13.6%; in the experiment with grape powdery mildew (20% EC @ 680 g a.i./ha) it was 12.48%. Further, the “% Disease Control (11 DAIIS)” value in the experiment with grape powdery mildew (20% EC @ 340 g a.i./ha) was 56.67%; in the experiment on grape powdery mildew (20% EC @ 510 g a.i./ha) it was 54.53%; in the experiment with grape powdery mildew (20% EC @ 680 g a.i./ha) it was 58.27%. Moreover, the entries for the “PDI on Bunches 15 DAIIS” value in the experiment with grape powdery mildew (20% EC @ 340 g a.i./ha), in the experiment on grape powdery mildew (20% EC @ 510 g a.i./ha) and in the experiment on grape powdery mildew (20% EC @ 680 g a.i./ha) were 10.23%, 9.6% and 8.9%, respectively. Further, the “% Disease Control (15 DAIIS)” value in the experiment on grape powdery mildew (20% EC @ 340 g a.i./ha) amounted to 60.84%; in the experiment on grape powdery mildew (20% EC @ 510 g a.i./ha) it was 63.26%; in the experiment on grape powdery mildew (20% EC @ 680 g a.i./ha), 65.93%. In addition, the “Grape Downy mildew incidence 7 DAIIS” value with grape downy mildew (20% EC @ 400 g a.i./ha) was “comparable with standard check fungicides”; with grape downy mildew (20% EC @ 400 g a.i./ha, listed as Cpd 2) it was 4.46%; with grape downy mildew (20% EC @ 800 g a.i./ha), “comparable with standard check fungicides”; in the experiment on grape downy mildew (setting [2]), 2.77%. For the same compound, the “% Control (7 DAIIS)” value in the experiment on grape downy mildew (20% EC @ 400 g a.i./ha) amounted to 73.53%; with grape downy mildew (20% EC @ 800 g a.i./ha), 83.56%. Also, the “Grape Downy mildew incidence 10 DAIIS” value in the experiment on grape downy mildew (20% EC @ 400 g a.i./ha) is on record as 7.58%; with grape downy mildew (20% EC @ 800 g a.i./ha) it was “at par with standard check fungicides”; in the experiment on grape downy mildew (setting [2]), 5.27%. Also, the “% Control (10 DAIIS)” value is recorded as 66.72% in the experiment on grape downy mildew (20% EC @ 400 g a.i./ha) and 76.86% in the experiment with grape downy mildew (20% EC @ 800 g a.i./ha). Moreover, the “Rose PM % incidence 4 DAS” value with rose powdery mildew was 36.83%. Besides, the “Rose PM % Control” value with rose powdery mildew (over untreated check) was 28.52%. The “inhibition against all the test pathogens” value in experiment [1] is given as 90-100%. Also, in [1] (result in words), the “fungicidal activity against plant pathogenic fungi” value is listed as “active against all pathogens”.
